Test results published in ChEMBL document CHEMBL5661943, “ASAP - In vitro antiviral effect” (2024).
“And” between values parts separate entries of the source, which are not always exact repeats. Identical values can stand only once.

Experiments:
Zika virus [1] = experiment: (§1) Functional CPE-based assay to measure dose dependent changes in antiviral-drug inhibitory efficacy against Zika virus MR766 in Vero E6 miRFP670 cells. Cells are treated with antiviral candidates that are serially diluted. EC50 is reported via analysis of MTS assay as a readout of CPE. The assay has been performed by KU Leuven.; format: organism-based, Chlorocebus sabaeus, Vero C1008; details: Zika virus; for EC50: Vero C1008
Zika virus [2] = experiment: EC50 is reported via analysis of immunofluorescence staining. The assay has been performed by Icahn School of Medicine at Mount Sinai.; format: functional, organism-based, Chlorocebus sabaeus, VeroE6/TMPRSS2
dengue virus type 2 [3] = experiment: Functional immunofluorescence assay to measure dose dependent changes in antiviral-drug inhibitory efficacy against Dengue virus type 2 Thailand/16681/84 in Vero E6/TMPRSS2 cells (cotreated with P-gp inhibitor, Elacridar). Cells are treated with antiviral candidates that are serially diluted, following infection, cells are fixed. EC50 is reported via analysis of immunofluorescence staining. The assay has been performed by Icahn School of Medicine at Mount Sinai.; format: organism-based, Chlorocebus sabaeus, VeroE6/TMPRSS2; details: Dengue virus; for EC90: P-gp concentration 2 uM, P-gp inhibitor Elacidar
Zika virus [4] = experiment: as §1, with “cells (cotreated with P-gp inhibitor, CP100356).” for “cells.”; format: organism-based, Chlorocebus sabaeus, Vero C1008; details: for EC90: P-gp concentration 500 nM, P-gp inhibitor CP100356
dengue virus type 2 [5] = experiment: Functional assay to measure dose dependent changes in antiviral-drug inhibitory efficacy against Dengue virus type 2 New Guinea C in Vero E6 miRFP670 cells (cotreated with P-gp inhibitor, CP100356). Cells are treated with antiviral candidates that are serially diluted, following infection, cells are fixed. EC50 is reported via analysis of fluorescence intensity using high-content imager. The …; format: organism-based, Chlorocebus sabaeus, Vero C1008; details: for EC90: P-gp concentration 500 nM, P-gp inhibitor CP100356

## COc1cc(-c2cc(Cl)cc(NC(=O)OCc3ccccc3)c2)c(OC)cc1CC(=O)O
Zika virus [1]
  EC50: > 50 µM
Zika virus [1]; Vero C1008, Baseline response 0 %, Hill slope 0.25, Maximum measured 21.22 %, Maximum response 100 %, Minimum measured 1.079 %, R squared 0.113
  EC90: > 50 µM

## CN1Cc2ccc(NC(=O)c3cc(Cl)cc4[nH]ncc34)cc2C1
Zika virus [1]
  EC50: > 50 µM
Zika virus [1]; Vero C1008, Baseline response 0 %, Hill slope -0.359, Maximum measured 1.713 %, Maximum response 100 %, Minimum measured -2.397 %, R squared 0.026
  EC90: > 50 µM

## O=C(Nc1ccc2c(c1)CNCC2)c1cc(Cl)cc2[nH]ncc12
Zika virus [1]
  EC50: > 50 µM
Zika virus [1]; Vero C1008, Maximum measured 0.588 %, Minimum measured -2.808 %
  EC90: > 50 µM

## Cc1c(C(=O)Nc2cc(-c3cccnc3)ccn2)cc(C2CC2)n1C
Zika virus [2]; Zika virus, VeroE6/TMPRSS2
  EC50: 14.5 µM
  EC90: 32.7 µM
Dengue virus type 2 [3]; VeroE6/TMPRSS2
  EC50: 46 µM
Dengue virus type 2 [3]; VeroE6/TMPRSS2, Baseline response 0 %, Hill slope -10.528, Maximum measured 161.281 %, Maximum response 100 %, Minimum measured 29.52 %, R squared 0.091
  EC90: > 50 µM
Zika virus [4]; Baseline response 0 %, Hill slope 10.672, Maximum measured 18.054 %, Maximum response 100 %, Minimum measured -2.868 %, R squared 0.771
  EC90: > 50 µM
Zika virus [4]; Zika virus, Vero C1008
  EC50: > 50 µM
Zika virus [4]; Zika virus, Vero C1008, Baseline response 0 %, Hill slope 1.591, Maximum measured 7.654 %, Maximum response 100 %, Minimum measured -2.289 %, R squared 0.158
  EC90: > 50 µM
Dengue virus type 2 [5]; Baseline response 0 %, Hill slope 0.498, Maximum measured 89.901 %, Maximum response 100 %, Minimum measured 65.385 %, R squared 0.493
  EC90: > 6.25 µM
Dengue virus type 2 [5]; Baseline response 0 %, Hill slope 0.771, Maximum measured 124.592 %, Maximum response 100 %, Minimum measured 47.777 %, R squared 0.6
  EC90: < 0.391 µM
Dengue virus type 2 [5]; vero c1008
  EC50: 0.83 µM and > 6.25 µM

## O=C1Cc2c(cc(Br)cc2C(=O)Nc2ccc3c(c2)CNC3)N1
Zika virus [2]; Baseline response 0 %, EC90 CI (lower) 0.005 uM, EC90 CI (upper) 0.605 uM, Hill slope -0.732, Maximum measured 85.329 %, Maximum response 60 %, Minimum measured 3.582 %, P-gp concentration 2 uM, R squared 0.614, P-gp inhibitor Elacidar
  EC90: 21.3 µM
Zika virus [2]; Baseline response 0 %, Hill slope -0.686, Maximum measured 100.363 %, Maximum response 100 %, Minimum measured 5.777 %, P-gp concentration 2 uM, R squared 0.778, P-gp inhibitor Elacidar
  EC90: > 50 µM
Zika virus [2]; Zika virus, VeroE6/TMPRSS2
  EC50: 2.09 µM
Zika virus [2]; veroe6/tmprss2
  EC50: 1.06 µM
Dengue virus type 2 [3]; VeroE6/TMPRSS2
  EC50: > 50 µM
Dengue virus type 2 [3]; VeroE6/TMPRSS2, Maximum measured […], Minimum measured 159.027 %
  EC90: > 50 µM
Zika virus [4]; Zika virus, Vero C1008
  EC50: 7.52 µM
Zika virus [4]; Zika virus, Vero C1008, Baseline response 0 %, EC90 CI (lower) 4.323 uM, EC90 CI (upper) 45.141 uM, Hill slope 3.545, Maximum measured 169.819 %, Maximum response 100 %, Minimum measured -0.685 %, R squared 0.785
  EC90: 14 µM
Dengue virus type 2 [5]; Dengue virus, Vero C1008
  EC50: > 50 µM
Dengue virus type 2 [5]; Dengue virus, Vero C1008, Maximum measured 133.969 %, Minimum measured 97.1 %
  EC90: > 50 µM

## O=C(Nc1cc(Cl)cc(-c2cccc3c(C(=O)O)cccc23)c1)OCc1ccccc1
Zika virus [1]
  EC50: > 50 µM
Zika virus [1]; Vero C1008, Maximum measured -0.778 %, Minimum measured -5.402 %
  EC90: > 50 µM

## O=C(Nc1ccc2c(c1)CNC2)c1cc(F)cc2[nH]nnc12
Zika virus [2]; Zika virus, VeroE6/TMPRSS2
  EC50: > 50 µM
Zika virus [2]; Zika virus, VeroE6/TMPRSS2, Maximum measured 143.994 %, Minimum measured 34.535 %, P-gp concentration 2 uM, P-gp inhibitor Elacidar
  EC90: > 50 µM
Dengue virus type 2 [3]; VeroE6/TMPRSS2
  EC50: > 50 µM
Dengue virus type 2 [3]; VeroE6/TMPRSS2, Maximum measured 175.922 %, Minimum measured 81.786 %
  EC90: > 50 µM
Dengue virus type 2 [3]; VeroE6/TMPRSS2, Baseline response 0 %, Hill slope 0.135, Maximum measured 108.442 %, Maximum response 100 %, Minimum measured 80.171 %, R squared 0.018
  EC90: > 50 µM
Zika virus [4]; Zika virus, Vero C1008
  EC50: > 50 µM
Zika virus [4]; Zika virus, Vero C1008, Maximum measured -0.357 %, Minimum measured -5.629 %
  EC90: > 50 µM
Dengue virus type 2 [5]; Dengue virus, Vero C1008
  EC50: > 50 µM
Dengue virus type 2 [5]; Dengue virus, Vero C1008, Maximum measured 103.909 %, Minimum measured 99.111 %
  EC90: > 50 µM

## CC(C)c1cc(Br)cc(C(=O)Nc2ccc3c(c2)CNC3)c1
Zika virus [1]
  EC50: > 50 µM
Zika virus [1]; Vero C1008, Baseline response 0 %, Hill slope -0.823, Maximum measured 6.311 %, Maximum response 100 %, Minimum measured -3.726 %, R squared 0.279
  EC90: > 50 µM

## CCc1cc(C(=O)Nc2cccc(-c3nnn[nH]3)c2)sc1-c1ccc(Cl)cc1
Zika virus [2]; Zika virus, VeroE6/TMPRSS2
  EC50: > 16.7 µM
Zika virus [2]; Zika virus, VeroE6/TMPRSS2, Maximum measured 109.494 %, Minimum measured 75.609 %, P-gp concentration 2 uM, P-gp inhibitor Elacidar
  EC90: > 16.7 µM
Dengue virus type 2 [3]; VeroE6/TMPRSS2
  EC50: > 16.7 µM
Dengue virus type 2 [3]; VeroE6/TMPRSS2, Baseline response 0 %, Hill slope -0.101, Maximum measured 96.419 %, Maximum response 100 %, Minimum measured 50.045 %, R squared 0.073
  EC90: > 16.7 µM
Zika virus [4]; Zika virus, Vero C1008
  EC50: > 50 µM
Zika virus [4]; Zika virus, Vero C1008, Baseline response 0 %, Hill slope -0.614, Maximum measured 5.848 %, Maximum response 100 %, Minimum measured -4.216 %, R squared 0.418
  EC90: > 50 µM
Dengue virus type 2 [5]; Dengue virus, Vero C1008
  EC50: > 25 µM
Dengue virus type 2 [5]; Dengue virus, Vero C1008, Baseline response 0 %, Hill slope 0.831, Maximum measured 164.159 %, Maximum response 100 %, Minimum measured 71.563 %, R squared 0.225
  EC90: > 25 µM

## Cn1cc2cc(Cl)cc(C(=O)Nc3ccc4c(c3)CNC4)c2n1
Zika virus [2]; Zika virus, VeroE6/TMPRSS2
  EC50: 0.643 µM
Zika virus [2]; Zika virus, VeroE6/TMPRSS2, Baseline response 0 %, Hill slope -0.814, Maximum measured 136.159 %, Maximum response 100 %, Minimum measured 33.863 %, P-gp concentration 2 uM, R squared 0.555, P-gp inhibitor Elacidar
  EC90: > 5.56 µM
Dengue virus type 2 [3]; VeroE6/TMPRSS2
  EC50: > 5.56 µM
Dengue virus type 2 [3]; VeroE6/TMPRSS2, Maximum measured 98.349 %, Minimum measured 47.733 %
  EC90: > 5.56 µM
Zika virus [4]; Zika virus, Vero C1008
  EC50: 0.514 µM
Zika virus [4]; Zika virus, Vero C1008, Baseline response 0 %, Hill slope 4.196, Maximum measured 85.26 %, Maximum response 100 %, Minimum measured 23.993 %, R squared 0.942
  EC90: > 0.781 µM
Dengue virus type 2 [5]; Dengue virus, Vero C1008
  EC50: 0.704 µM
Dengue virus type 2 [5]; Dengue virus, Vero C1008, Baseline response 0 %, Hill slope 0.764, Maximum measured 122.857 %, Maximum response 100 %, Minimum measured 34.33 %, R squared 0.405
  EC90: < 0.391 µM
